Common to all, as to type: cell-based
A short description of data set [1]: WST-1 proliferation assay, SAOS-2. The settings on record: human, SAOS-2 cells (osteosarcoma), vs 0.1% DMSO control = 100%, mean ± standard deviation. On the procedure:
(§1) A thorough analysis of antiproliferative activity was performed across various cell culture types representing different histotypes: leukemia (Jurkat, MOLT-4), lung adenocarcinoma (A549), colorectal adenocarcinoma (HT-29), pancreatic carcinoma (PANC-1), breast adenocarcinoma (MCF-7), osteosarcoma (SAOS-2), and one non-cancerous cell line (fetal lung fibroblasts MRC-5). The cell lines were exposed to the newly synthesized compounds at a concentration of 100 μM for 48 h in a single-dose treatment. Changes in cell proliferation compared to the vehicle 0.1% dimethyl sulfoxide (DMSO) control were determined using the WST-1 assay, which is based on mitochondrial dehydrogenase metabolic activities. […] The overall cytotoxic activity of each compound was expressed as growth percent (GP) – the mean of the proliferation of all cell lines treated with the same compound.
(§2) Selected human tumor and non-tumor cell lines Jurkat (acute T-cell leukemia), MOLT-4 (acute lymphoblastic leukemia), A549 (lung carcinoma), HT-29 (colorectal adenocarcinoma), PANC-1 (pancreas epithelioid carcinoma), MCF-7 (breast adenocarcinoma), SAOS-2 (osteosarcoma) and MRC-5 (normal lung fibroblasts) were purchased from either American Type Culture Collection (ATCC; VA, USA) or Sigma-Aldrich (St. Louis, MO, USA) and cultured according to the provider's culture method guidelines. All cell lines were maintained at 37 °C in a humidified 5% carbon dioxide and 95% air incubator. Cells in the maximum range of either 10 passages for the adherent cell lines (A549, HT-29, PANC-1, MCF-7, SAOS-2, and MRC-5), or 20 passages for suspension cell lines (Jurkat, MOLT-4,) and in an exponential growth phase were used for this study. Screening of the antiproliferative effect and growth percent calculation were conducted as follows: each cell line was seeded at previously established optimal density (1–50 × 10^3 cells per well) in a 96-well plate (TPP, Trasadingen, Switzerland) and cells were allowed to settle overnight. Cells were treated for 48 h with compounds at a final concentration of 100 μM. At the end of the cultivation period, the WST-1 proliferation assay (Roche, Basel, Switzerland) was performed according to the manufacturer's protocol. The absorbance was measured at 440 nm using a Tecan Spark multimode microplate reader (Tecan, Mannedorf, Switzerland). Each value is the mean of three independent experiments and represents the percentage of proliferation (100% cell proliferation for 0.1% DMSO mock-treated control cells). The GP value was calculated for each compound tested. GP represents the mean of the percentage proliferation decrease of all cell lines treated with the same compound.
(In general: Tetrazolium assays rely on reduction of a dye to a coloured formazan, in cell work by metabolically active cells.)

Data set [2] relates to Whole blood from healthy human donors. Briefly: Dicentric chromosome assay (DCA). The following applies: 3 Gy gamma. On the procedure:
The radioprotective effect of eight compounds was assessed using the cytogenetic method of DCA. DCA is known for its high sensitivity to radiation exposure and its specificity, and is thus considered a gold standard for biological dosimetry. It is also applicable to reveal the radioprotective potential of substances, as their effect is to protect DNA from forming dicentric chromosomes after IR exposure. This assay included six newly synthesized substances as well as amifostine (WR2721) and its active form (WR1065). WR2721 and WR1065 served as benchmarks, allowing us to measure the radioprotective effect of our compounds against these well-established radioprotectors. Whole blood from healthy human donors was utilized for DCA, and it was irradiated with 3 Gy gamma radiation after exposure to the tested compounds. Each experiment included irradiated and non-irradiated controls. The experiments were conducted at two different concentrations of the substances. For the newly synthesized compounds, 100 μM and an optimal non-toxic concentration which varied between 200–1000 μM were used. […] The results were interpreted as the number of dicentric chromosomes per cell.
To express the radioprotective effect the radioprotection factor (RF) was calculated as the […] (Table 2). RF expresses how many-fold the DC count in the sample decreased compared to the irradiated control.
Blood samples from healthy male donors were taken in heparinized tubes, with informed consent and the approval of a local ethics committee. Blood samples (1 ml) were treated with eight different substances (WR2721, WR1065, and 1–6) in two different concentrations. Non-treated irradiated and non-treated non-irradiated controls were included. All samples were exposed to a single dose of 3 Gy of gamma radiation (at the dose rate of 0.6 Gy min^−1, using the ^60Co Chisobalt, Chirana, Prague, Czech Republic). […] The dose of 3 Gy was selected to ensure a sufficient quantity of dicentric chromosomes in lymphocytes. Immediately after irradiation, the samples were placed in a humidified atmosphere with 5% CO2 at 37 °C for 30 min. Treated and irradiated blood samples were added to T-25 cultivation flasks containing 10 ml RPMI 1640 with 20% fetal bovine serum and 2% phytohaemagglutinin (all Gibco by Thermo Fisher Scientific, Waltham, MA, USA). Colcemid at a final concentration of 0.25 μg ml^−1 (Gibco by Thermo Fisher Scientific, Waltham, MA, USA) was added to each culture tube 48 h after culture initiation. Cells were cultivated for another 2 h and then harvested.
At the harvest time (total time 50 h), cell pellets obtained after centrifugation at 600 × g for 3 min were resuspended and treated with 10 ml of prewarmed 0.075 M solution of potassium chloride (Gibco by Thermo Fisher Scientific, Waltham, MA, USA) for 20 min. After another centrifugation, cells were treated three times with fixative solution consisting of 3 : 1 (v/v) methanol : acetic acid (penta Chemicals, Prague, Czech Republic). Fixed cells were dropped on ice-cold microscope slides, air-dried overnight, and stained with 5% Giemsa solution (P-Lab, Prague, Czech Republic) for 6 min. Prepared slides were evaluated using automated metaphase finding systems. The slides with metaphases were analyzed by Axio Imager 2 (Carl Zeiss Microscopy GmbH, Göttingen, Germany) and Metafer 4 software (MetaSystems Hard & Software GmbH, Altlußheim, Germany). At first, the images of the metaphases in lower magnification were acquired (MSearch TL mode). Following that, the images of good-quality metaphases in higher resolution were acquired (AutoCapt mode). The data obtained were analyzed manually (manual selection of good-quality metaphases and dicentric chromosome detection).

Data set [3] in a line: WST-1 proliferation assay, MRC-5. The following applies: human, MRC-5 cells (normal lung fibroblasts), vs 0.1% DMSO control = 100%, mean ± standard deviation. The method, then: as §1, §2
The mark [4] stands for this setting: 100 μM, 60 min pre-exposure, lower concentrations experiment.
Where [5] appears, read: 500 μM (optimal non-toxic concentration), 60 min pre-exposure.
Setting [6] is: 10 μM, 30 min pre-exposure, lower concentrations experiment.
Where [7] appears, read: 100 μM, 30 min pre-exposure, higher concentrations experiment.

The results in this text go back to article PMC11324046, “Second-generation piperazine derivatives as promising radiation countermeasures” (RSC Medicinal Chemistry, 2024).

Broadly, the viability is a read-out of living cells in per cent, often relative to untreated cells.

Regarding `COc1cc([N+](=O)[O-])ccc1OCC(O)CN1CCN(CCO)CC1` (stereo not shown) [Compound 1, 1-(4-(2-Hydroxyethyl)piperazin-1-yl)-3-(2-methoxy-4-nitrophenoxy)propan-2-ol], the viability at 48 h, 100 µM in data set [1] was 101 ± 16%; in data set [3] it was 111 ± 9%. Further, the results for the “RF (radioprotection factor)” value in data set [2] (setting [4]) and in data set [2] (setting [5]) were 1.42 and 1.97, respectively.

As for `NCCCNCCS` [WR1065, reference compound], the viability at 48 h, 100 µM came out at 7 ± 4% in data set [1] and 3 ± 1% in data set [3]. The “RF (radioprotection factor)” value in data set [2] (setting [6]) is listed as 1.59; in data set [2] (setting [7]) it was 1.96.

Turning to `O=[N+]([O-])c1ccc(OCC(O)CN2CCN(CCO)CC2)c(F)c1` (stereo not shown) [Compound 3, 1-(4-(2-Hydroxyethyl)piperazin-1-yl)-3-(2-fluoro-4-nitrophenoxy)propan-2-ol], the viability at 48 h, 100 µM came to 92 ± 14% in data set [1] and 103 ± 6% in data set [3]. Moreover, the “RF (radioprotection factor)” value in data set [2] (setting [4]) was found to be 2.43; in data set [2] (setting [5]), 4.16.

`COc1ccc(OCC(O)CN2CCN(CCO)CC2)c([N+](=O)[O-])c1` (stereo not shown) [Compound 2, 1-(4-(2-Hydroxyethyl)piperazin-1-yl)-3-(4-methoxy-2-nitrophenoxy)propan-2-ol]: the results for the viability at 48 h, 100 µM in data set [1] and in data set [3] were 103 ± 9% and 105 ± 1%, respectively. Further, the “RF (radioprotection factor)” value in data set [2] (setting [4]) is 1.23; in data set [2] (setting [5]), 1.97.

`O=[N+]([O-])c1cc(OCC(O)CN2CCN(CCO)CC2)ccc1Cl` (stereo not shown) [Compound 5, 1-(4-(2-Hydroxyethyl)piperazin-1-yl)-3-(4-chloro-3-nitrophenoxy)propan-2-ol]: the figures for the viability at 48 h, 100 µM in data set [1] and in data set [3] were 89 ± 3% and 98 ± 3%, respectively. For the same molecule, the “RF (radioprotection factor)” value came to 1.65 in data set [2] (setting [4]) and 1.91 in data set [2] (200 μM (optimal non-toxic concentration), 60 min pre-exposure).

`OCCN1CCN(CC(O)COc2cccc(Cl)c2)CC1` (stereo not shown) [Compound 6, 1-(4-(2-Hydroxyethyl)piperazin-1-yl)-3-(3-chlorophenoxy)propan-2-ol]: the viability at 48 h, 100 µM in data set [1] is 120 ± 26%; in data set [3], 97 ± 1%. Besides, the results for the “RF (radioprotection factor)” value in data set [2] (setting [4]) and in data set [2] (setting [5]) were 2.1 and 2.69, respectively.

Regarding `OCCN1CCN(CC(O)COc2ccc(F)cc2)CC1` (stereo not shown) [Compound 4, 1-(4-(2-Hydroxyethyl)piperazin-1-yl)-3-(4-fluorophenoxy)propan-2-ol], the results for the viability at 48 h, 100 µM in data set [1] and in data set [3] were 102 ± 6% and 103 ± 2%, respectively. Besides, in data set [2] (setting [4]), the “RF (radioprotection factor)” value worked out at 1.65.

Turning to `NCCCNCCSP(=O)(O)O` [WR2721, amifostine, reference compound], the viability at 48 h, 100 µM in data set [1] worked out at 9 ± 3%; in data set [3], 8 ± 4%. Further, the results for the “RF (radioprotection factor)” value in data set [2] (setting [6]) and in data set [2] (setting [7]) were 1.33 and 1.45, respectively.
